# Laboratory results published in ChEMBL document CHEMBL1201862, “PubChem BioAssay data set” (2004).
#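 Test compounds were applied to cells in 96-well plates for 48 hours at 5 doses. GI50 is the concentration that inhibits growth by half.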 The source made the active and inactive calls. Rule as the data show it: active = GI50 up to about 1.1 µM and inactive = higher.
# Columns and labels:
# Assay in all cases: NCI anticancer screen, dose series, 48 h
# OVCAR-5 = system: OVCAR-5
# T47D = system: T47D
# SF-268 = system: SF-268
# MOLT-4 = system: MOLT-4
# M14 = system: M14
# A549 = system: A549
# SF-539 = system: SF-539
# COLO 205 = system: COLO 205
# SK-MEL-2 = system: SK-MEL-2
# NCI/ADR-RES = system: NCI/ADR-RES
# MDA-N = system: MDA-N
# U-251 = system: U-251
# UACC-257 = system: UACC-257
# OVCAR-4 = system: OVCAR-4
# ACHN = system: ACHN
# SF-295 = system: SF-295
# EKVX = system: EKVX
# KM12 = system: KM12
# UO-31 = system: UO-31
# HT-29 = system: HT-29
# SNB-75 = system: SNB-75
# NCI-H522 = system: NCI-H522
# UACC-62 = system: UACC-62
# NCI-H226 = system: NCI-H226
# SNB-19 = system: SNB-19
# HCT-116 = system: HCT-116
# SW-620 = system: SW-620
# SK-MEL-5 = system: SK-MEL-5
# SN12C = system: SN12C
# DU-145 = system: DU-145
# TK-10 = system: TK-10
# 786-0 = system: 786-0
# MDA-MB-231 = system: MDA-MB-231
# K562 = system: K562
# HOP-62 = system: HOP-62
# RXF 393 = system: RXF 393
# SK-MEL-28 = system: SK-MEL-28
# NCI-H460 = system: NCI-H460
# MCF7 = system: MCF7
# IGROV-1 = system: IGROV-1
# A498 = system: A498
# HCT-15 = system: HCT-15
# LOX IMVI = system: LOX IMVI
# NCI-H23 = system: NCI-H23
# HL-60 = system: HL-60
# SK-OV-3 = system: SK-OV-3
# CAKI-1 = system: CAKI-1
# BT-549 = system: BT-549
# PC-3 = system: PC-3
# RPMI-8226 = system: RPMI-8226
# OVCAR-3 = system: OVCAR-3
# OVCAR-8 = system: OVCAR-8
# HOP-92 = system: HOP-92
# Malme-3M = system: Malme-3M
# CCRF-CEM = system: CCRF-CEM
# HCC 2998 = system: HCC 2998
# MDA-MB-435 = system: MDA-MB-435
# Hs-578T = system: Hs-578T
# SR = system: SR
smiles,measurement,setting,value
NN/C(=N\S(=O)(=O)c1ccc(-c2ccccn2)s1)Nc1ccc(Cl)cc1,GI50,OVCAR-5,> 100 µM (inactive)
same,GI50,T47D,38.1 µM (inactive)
same,GI50,SF-268,22.1 µM (inactive)
same,GI50,MOLT-4,32.7 µM (inactive)
same,GI50,M14,> 100 µM (inactive)
same,GI50,A549,59 µM (inactive)
same,GI50,SF-539,38.9 µM (inactive)
same,GI50,COLO 205,> 100 µM (inactive)
same,GI50,SK-MEL-2,> 100 µM (inactive)
same,GI50,NCI/ADR-RES,> 100 µM (inactive)
same,GI50,MDA-N,> 100 µM (inactive)
same,GI50,U-251,44.2 µM (inactive)
same,GI50,UACC-257,> 100 µM (inactive)
same,GI50,OVCAR-4,85.9 µM (inactive)
same,GI50,ACHN,> 100 µM (inactive)
same,GI50,SF-295,52.5 µM (inactive)
same,GI50,EKVX,53.6 µM (inactive)
same,GI50,KM12,> 100 µM (inactive)
same,GI50,UO-31,43.9 µM (inactive)
same,GI50,HT-29,> 100 µM (inactive)
same,GI50,SNB-75,25.6 µM (inactive)
same,GI50,NCI-H522,0.265 µM (active)
same,GI50,UACC-62,> 100 µM (inactive)
same,GI50,NCI-H226,75.2 µM (inactive)
same,GI50,SNB-19,42.1 µM (inactive)
same,GI50,HCT-116,> 100 µM (inactive)
same,GI50,SW-620,> 100 µM (inactive)
same,GI50,SK-MEL-5,> 100 µM (inactive)
same,GI50,SN12C,> 100 µM (inactive)
same,GI50,DU-145,> 100 µM (inactive)
same,GI50,TK-10,> 100 µM (inactive)
same,GI50,786-0,29.2 µM (inactive)
same,GI50,MDA-MB-231,> 100 µM (inactive)
same,GI50,K562,> 100 µM (inactive)
same,GI50,HOP-62,38.9 µM (inactive)
same,GI50,RXF 393,30.5 µM (inactive)
same,GI50,SK-MEL-28,> 100 µM (inactive)
same,GI50,NCI-H460,> 100 µM (inactive)
same,GI50,MCF7,> 100 µM (inactive)
same,GI50,IGROV-1,> 100 µM (inactive)
same,GI50,A498,> 100 µM (inactive)
same,GI50,HCT-15,> 100 µM
same,GI50,LOX IMVI,> 100 µM (inactive)
same,GI50,NCI-H23,> 100 µM (inactive)
same,GI50,HL-60,> 100 µM (inactive)
same,GI50,SK-OV-3,88.9 µM (inactive)
same,GI50,CAKI-1,58.6 µM (inactive)
same,GI50,BT-549,> 100 µM (inactive)
same,GI50,PC-3,> 100 µM (inactive)
same,GI50,RPMI-8226,> 100 µM (inactive)
same,GI50,OVCAR-3,73.8 µM (inactive)
same,GI50,OVCAR-8,83.6 µM (inactive)
same,GI50,HOP-92,68.5 µM (inactive)
COc1cccc2c1OC1c3ccccc3OCC1(O)C2 (stereo not given),GI50,OVCAR-5,> 100 µM (inactive)
same,GI50,T47D,> 100 µM (inactive)
same,GI50,SF-268,> 100 µM (inactive)
same,GI50,MOLT-4,> 100 µM (inactive)
same,GI50,M14,> 100 µM (inactive)
same,GI50,A549,> 100 µM (inactive)
same,GI50,SF-539,> 100 µM (inactive)
same,GI50,COLO 205,> 100 µM (inactive)
same,GI50,Malme-3M,> 100 µM (inactive)
same,GI50,SK-MEL-2,> 100 µM (inactive)
same,GI50,NCI/ADR-RES,> 100 µM (inactive)
same,GI50,MDA-N,> 100 µM (inactive)
same,GI50,CCRF-CEM,> 100 µM (inactive)
same,GI50,U-251,> 100 µM (inactive)
same,GI50,UACC-257,> 100 µM (inactive)
same,GI50,OVCAR-4,> 100 µM (inactive)
same,GI50,ACHN,> 100 µM (inactive)
same,GI50,SF-295,> 100 µM (inactive)
same,GI50,EKVX,> 100 µM (inactive)
same,GI50,KM12,> 100 µM (inactive)
same,GI50,UO-31,> 100 µM (inactive)
same,GI50,HT-29,> 100 µM (inactive)
same,GI50,SNB-75,> 100 µM (inactive)
same,GI50,NCI-H522,> 100 µM (inactive)
same,GI50,UACC-62,> 100 µM (inactive)
same,GI50,NCI-H226,> 100 µM (inactive)
same,GI50,HCT-116,> 100 µM (inactive)
same,GI50,SW-620,> 100 µM (inactive)
same,GI50,SK-MEL-5,> 100 µM (inactive)
same,GI50,SN12C,> 100 µM (inactive)
same,GI50,DU-145,> 100 µM (inactive)
same,GI50,TK-10,> 100 µM (inactive)
same,GI50,786-0,> 100 µM (inactive)
same,GI50,MDA-MB-231,> 100 µM (inactive)
same,GI50,K562,> 100 µM (inactive)
same,GI50,HOP-62,> 100 µM (inactive)
same,GI50,MCF7,> 100 µM (inactive)
same,GI50,IGROV-1,> 100 µM (inactive)
same,GI50,A498,> 100 µM (inactive)
same,GI50,HCT-15,> 100 µM
same,GI50,LOX IMVI,> 100 µM (inactive)
same,GI50,NCI-H23,> 100 µM (inactive)
same,GI50,SK-OV-3,> 100 µM (inactive)
same,GI50,CAKI-1,> 100 µM (inactive)
same,GI50,HCC 2998,> 100 µM (inactive)
same,GI50,BT-549,> 100 µM (inactive)
same,GI50,PC-3,> 100 µM (inactive)
same,GI50,RPMI-8226,> 100 µM (inactive)
same,GI50,OVCAR-3,> 100 µM (inactive)
same,GI50,OVCAR-8,> 100 µM (inactive)
same,GI50,MDA-MB-435,> 100 µM (inactive)
same,GI50,HOP-92,> 100 µM (inactive)
CN(C)c1ccc(C=c2c3cc(O)ccc3n3c2cc(-c2ccccc2)[n+]3C)cc1,GI50,OVCAR-5,4.82 µM (inactive)
same,GI50,SF-268,0.446 µM (active)
same,GI50,MOLT-4,3.27 µM (inactive)
same,GI50,M14,1.51 µM (inactive)
same,GI50,A549,3.73 µM (inactive)
same,GI50,Hs-578T,0.333 µM (active)
same,GI50,COLO 205,0.452 µM (active)
same,GI50,SK-MEL-2,1.27 µM (inactive)
same,GI50,NCI/ADR-RES,36.1 µM (inactive)
same,GI50,MDA-N,0.67 µM (active)
same,GI50,CCRF-CEM,0.656 µM (active)
same,GI50,U-251,0.317 µM (active)
same,GI50,UACC-257,1.08 µM (active)
same,GI50,OVCAR-4,3.28 µM (inactive)
same,GI50,ACHN,7.78 µM (inactive)
same,GI50,SF-295,3.78 µM (inactive)
same,GI50,EKVX,1.96 µM (inactive)
same,GI50,KM12,1.06 µM (active)
same,GI50,UO-31,2.93 µM (inactive)
same,GI50,HT-29,1.69 µM (inactive)
same,GI50,SNB-75,0.468 µM (active)
same,GI50,NCI-H522,0.337 µM (active)
same,GI50,UACC-62,1.36 µM (inactive)
same,GI50,NCI-H226,1.66 µM (inactive)
same,GI50,SNB-19,0.369 µM (active)
same,GI50,HCT-116,1.39 µM (inactive)
same,GI50,SW-620,1.22 µM (inactive)
same,GI50,SK-MEL-5,0.78 µM (active)
same,GI50,SN12C,0.33 µM (active)
same,GI50,DU-145,1.92 µM (inactive)
same,GI50,TK-10,3.72 µM (inactive)
same,GI50,786-0,1.09 µM (active)
same,GI50,MDA-MB-231,1.04 µM (active)
same,GI50,K562,0.428 µM (active)
same,GI50,HOP-62,1.81 µM (inactive)
same,GI50,RXF 393,1.53 µM (inactive)
same,GI50,SK-MEL-28,1.06 µM (active)
same,GI50,MCF7,0.692 µM (active)
same,GI50,IGROV-1,0.281 µM (active)
same,GI50,A498,4.47 µM (inactive)
same,GI50,HCT-15,18 µM
same,GI50,LOX IMVI,1.18 µM (inactive)
same,GI50,NCI-H23,1.08 µM (active)
same,GI50,HL-60,0.254 µM (active)
same,GI50,SK-OV-3,3.08 µM (inactive)
same,GI50,CAKI-1,8.63 µM (inactive)
same,GI50,SR,0.568 µM (active)
same,GI50,HCC 2998,2.22 µM (inactive)
same,GI50,BT-549,0.383 µM (active)
same,GI50,PC-3,0.9 µM (active)
same,GI50,RPMI-8226,0.282 µM (active)
same,GI50,OVCAR-3,0.746 µM (active)
same,GI50,OVCAR-8,0.76 µM (active)
same,GI50,MDA-MB-435,0.964 µM (active)
same,GI50,HOP-92,1.13 µM (inactive)
